Laboratory results reported in US8822449B2, “Substituted aminoindanes and analogs thereof, and the pharmaceutical use thereof” (Sanofi, priority 2008, dated 2014).

These molecules were tested against T1, sodium-proton exchanger of subtype 3 (NHE3) (Homo sapiens, UniProt P48764) (assay: Recovery of intracellular pH (pHi) after acidification in LAP1 cells stably expressing NHE3 (BCECF fluorescence, FLIPR)). Conditions: LAP1 cells stably expressing NHE3; pH recovery after acidification; range 1 is % inhibition at 10 μM; read-out: Activity range (inhibitory effect on NHE3).
T1 construct: expressed in transfected cells
T1 sequence (P48764 26-834): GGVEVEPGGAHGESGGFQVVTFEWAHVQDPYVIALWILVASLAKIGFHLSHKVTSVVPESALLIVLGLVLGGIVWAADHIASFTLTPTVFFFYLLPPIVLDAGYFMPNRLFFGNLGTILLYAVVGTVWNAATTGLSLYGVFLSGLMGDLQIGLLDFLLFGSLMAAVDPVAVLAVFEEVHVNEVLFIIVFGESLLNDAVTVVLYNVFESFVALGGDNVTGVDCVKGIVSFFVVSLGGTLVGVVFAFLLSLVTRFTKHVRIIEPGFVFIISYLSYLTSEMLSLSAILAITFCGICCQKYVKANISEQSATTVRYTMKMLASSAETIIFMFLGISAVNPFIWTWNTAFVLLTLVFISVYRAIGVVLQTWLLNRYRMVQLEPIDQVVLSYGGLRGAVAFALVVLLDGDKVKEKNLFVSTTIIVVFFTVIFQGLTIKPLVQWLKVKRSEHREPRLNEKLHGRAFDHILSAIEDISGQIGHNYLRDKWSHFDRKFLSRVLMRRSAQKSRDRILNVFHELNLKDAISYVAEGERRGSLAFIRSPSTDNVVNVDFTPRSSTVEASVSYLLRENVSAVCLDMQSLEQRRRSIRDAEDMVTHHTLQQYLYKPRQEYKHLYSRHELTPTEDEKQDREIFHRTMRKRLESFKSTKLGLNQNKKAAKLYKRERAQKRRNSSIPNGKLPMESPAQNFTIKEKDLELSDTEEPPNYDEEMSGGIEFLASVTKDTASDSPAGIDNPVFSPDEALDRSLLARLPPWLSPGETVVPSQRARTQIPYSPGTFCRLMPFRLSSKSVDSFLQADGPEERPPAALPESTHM
Format: cell-based
`CC(=O)Nc1cccc(O[C@H]2c3ccccc3C[C@@H]2N2CCCCCC2)c1` (racemic) [Example 636, N-[3-(rac-trans-(1,2)-2-azepan-1-ylindan-1-yloxy)phenyl]acetamide] showed an IC50 of less than 1000 nM. For `CC1(C)OC(=O)N(c2ccc(Cl)c(O[C@H]3c4cc(Cl)cc(F)c4C[C@@H]3N3CC[C@@H](O)C3)c2)C1=O` [Example 437, 3-{4-chloro-3-[(1S,2S)-6-chloro-4-fluoro-2-((R)-3-hydroxypyrrolidin-1-yl)indan-1-yloxy]phenyl}-5,5-dimethyloxazolidine-2,4-dione], the IC50 was 1000 to 10000 nM. Molecule `NCC1CCN([C@@H]2Cc3ccccc3[C@H]2Oc2ccc3c(c2)OCO3)CC1` (racemic) [Example 620, C-{1-[rac-trans-(1,2)-1-(benzo[1,3]dioxol-5-yloxy)indan-2-yl]piperidin-4-yl}methylamine] has an IC50 of 1000 to 10000 nM. Work on `N[C@H]1CCCN([C@H]2CCc3ccccc3[C@@H]2Oc2ccccc2N2CCOCC2)C1` (racemic) [Example 158, (S)-1-[rac-trans-(1,2)-1-(2-morpholin-4-ylphenoxy)-1,2,3,4-tetrahydronaphthalen-2-yl]piperidin-3-ylamine] yielded an inhibition at 10 µM of 20 to 50%. `CS(=O)(=O)c1ccc(O[C@H]2c3cc(Cl)cc(Cl)c3C[C@@H]2N2CC[C@H](F)C2)cc1` [Example 196, (S)-1-[trans-(1S,2S)-4,6-dichloro-1-(4-methanesulfonylphenoxy)indan-2-yl]-3-fluoropyrrolidine] was tested, and the IC50 was less than 1000 nM. `COCCN(C)[C@H]1Cc2c(Cl)cc(Cl)cc2[C@@H]1Oc1ccc(S(C)(=O)=O)cc1` [Example 218, [trans-(1S,2S)-4,6-dichloro-1-(4-methanesulfonylphenoxy)indan-2-yl]-(2-methoxyethyl)-methylamine] was tested, and the inhibition at 10 µM was 20 to 50%. Molecule `Cn1ccn(-c2ccc(O[C@H]3c4cc(Cl)cc(F)c4C[C@@H]3NC3CCCC3)c(F)c2)c1=O` [Example 755, 1-[4-(trans-(1S,2S)-6-Chloro-2-cyclopentylamino-4-fluoro-indan-1-yloxy)-3-fluoro-phenyl]-3-methyl-1,3-dihydro-imidazol-2-one] has an IC50 of 1000 to 10000 nM. Work on `O=S(=O)(NCC(F)(F)F)c1ccc(O[C@@H]2c3ccccc3C[C@H]2N2CCCC2)cc1` (racemic) [Example 469, 4-(rac-trans-(1,2)-2-pyrrolidin-1-ylindan-1-yloxy)-N-(2,2,2-trifluoroethyl)benzenesulfonamide] yielded an IC50 of 1000 to 10000 nM. Molecule `CS(=O)(=O)c1ccc(O[C@H]2c3c(Cl)cc(Cl)cc3C[C@@H]2N2CCNCC2)cc1` (racemic) [Example 287, 1-[rac-trans-(1,2)-5,7-dichloro-1-(4-methanesulfonylphenoxy)indan-2-yl]piperazine] has an IC50 of less than 1000 nM. For `COC(=O)c1ccc(O[C@H]2c3ccccc3CC[C@@H]2N2CCC[C@H](N)C2)c(Cl)c1` (racemic) [Example 531, 4-[rac-trans-(1,2)-2-((S)-3-aminopiperidin-1-yl)-1,2,3,4-tetrahydronaphthalen-1-yloxy]-3-chlorobenzoic acid methyl ester], the inhibition at 10 µM was 20 to 50%. For `CC(=O)Nc1cccc(O[C@H]2c3ccccc3C[C@@H]2N2CCSCC2)c1` (racemic) [Example 643, N-[3-(rac-trans-(1,2)-2-thiomorpholin-4-ylindan-1-yloxy)phenyl]acetamide], the inhibition at 10 µM was 20 to 50%. `c1ccc2c(c1)C[C@@H](N1C[C@H]3CNC[C@H]3C1)[C@@H]2Oc1cccc2[nH]ccc12` (racemic) [Example 504, 4-[rac-trans-(1,2)-2-(Hexahydropyrrolo[3,4-c]pyrrol-2-yl)indan-1-yloxy]-1H-indole] gave an IC50 of 1000 to 10000 nM. `N#Cc1ccc(O[C@H]2c3cc(Cl)cc(Cl)c3C[C@@H]2N2CCNCC2)c(F)c1` [Example 456, 4-((1S,2S)-4,6-dichloro-2-piperazin-1-ylindan-1-yloxy)-3-fluorobenzonitrile] was tested, and the IC50 was less than 1000 nM. In the case of `CC(=O)Nc1cccc(O[C@H]2c3cc(Cl)cc(Cl)c3C[C@@H]2N2CCCNCC2)c1` (racemic) [Example 644, N-[3-(rac-trans-(1,2)-4,6-dichloro-2-[1,4]diazepan-1-ylindan-1-yloxy)phenyl]acetamide], the IC50 is reported as less than 1000 nM. For `CS(=O)(=O)c1ccc(O[C@H]2c3ccccc3C[C@@H]2N2CCCC(NCC(F)(F)F)C2)cc1` (stereo partly drawn) [Example 219, {(R)-1-[trans-(1S,2S)-1-(4-methanesulfonylphenoxy)indan-2-yl]piperidin-3-yl}-(2,2,2-trifluoroethyl)amine], the inhibition at 10 µM was 20 to 50%. `NCC1CCN([C@@H]2Cc3ccccc3[C@H]2Oc2cccc(NC(N)=O)c2)CC1` (racemic) [Example 235, {3-[rac-trans-(1,2)-2-(4-aminomethylpiperidin-1-yl)indan-1-yloxy]phenyl}urea] was tested, and the IC50 was 1000 to 10000 nM. With `N#Cc1csc(-c2ccc(O[C@@H]3c4ccccc4C[C@H]3N3CCC[C@@H](N)C3)cc2)n1` (racemic) [Example 381, 2-{4-[rac-trans-(1,2)-2-((R)-3-aminopiperidin-1-yl)indan-1-yloxy]phenyl}thiazole-4-carbonitrile] the IC50 was 1000 to 10000 nM. In the case of `N#Cc1ccc(O[C@H]2c3ccccc3CC[C@@H]2N2CCC[C@H](N)C2)c(F)c1F` (racemic) [Example 528, 4-[rac-trans-(1,2)-2-((S)-3-aminopiperidin-1-yl)-1,2,3,4-tetrahydronaphthalen-1-yloxy]-2,3-difluorobenzonitrile], the IC50 is reported as 1000 to 10000 nM. `N[C@H]1CCCN([C@H]2CCc3ccccc3[C@@H]2Oc2cnc3ccccc3c2)C1` (racemic) [Example 192, (S)-1-[rac-trans-(1,2)-1-(quinolin-3-yloxy)-1,2,3,4-tetrahydronaphthalen-2-yl]piperidin-3-ylamine] was tested, and the inhibition at 10 µM was 20 to 50%. `CS(=O)(=O)c1ccc(O[C@H]2c3cc(Cl)cc(Cl)c3C[C@@H]2N2CCCN(CCO)CC2)cc1` (racemic) [Example 383, 2-{4-[rac-trans-(1,2)-4,6-dichloro-1-(4-methanesulfonylphenoxy)indan-2-yl]-[1,4]diazepan-1-yl}-ethanol] was tested, and the IC50 was less than 1000 nM. With `CCCC1(N)CCCN([C@H]2Cc3c(Cl)cc(Cl)cc3[C@@H]2Oc2ccc(S(C)(=O)=O)cc2)C1` (stereo partly drawn) [Example 299, 1-[trans-(1S,2S)-4,6-dichloro-1-(4-methanesulfonylphenoxy)indan-2-yl]-3-propylpiperidin-3-ylamine] the IC50 was less than 1000 nM. In the case of `Cc1nnc(C)n1-c1ccc(O[C@H]2c3cc(Cl)cc(Cl)c3C[C@@H]2N2CCC[C@@H](O)C2)cc1` [Example 132, (R)-1-{trans-(1S,2S)-4,6-dichloro-1-[4-(3,5-dimethyl-[1,2,4]triazol-4-yl)phenoxy]indan-2-yl}piperidin-3-ol], the IC50 is reported as less than 1000 nM. In the case of `N#Cc1ccc(O[C@@H]2c3ccccc3C[C@H]2N2C[C@H]3CNC[C@H]3C2)cc1F` (racemic) [Example 397, 2-fluoro-4-[rac-trans-(1,2)-2-(hexahydropyrrolo[3,4-c]pyrrol-2-yl)indan-1-yloxy]benzonitrile], the IC50 is reported as 1000 to 10000 nM. With `CS(=O)(=O)c1ccc(O[C@H]2c3cc(Cl)cc(Cl)c3C[C@@H]2N2CCC[C@H]2CO)cc1` [Example 228, {(S)-1-[trans-(1S,2S)-4,6-dichloro-1-(4-methanesulfonylphenoxy)indan-2-yl]pyrrolidin-2-yl}methanol] the IC50 was 1000 to 10000 nM. For `NCCc1c[nH]c2ccc(O[C@H]3c4ccccc4CC[C@@H]3N3CCC[C@H](N)C3)cc12` (racemic) [Example 201, (S)-1-{rac-trans-(1,2)-1-[3-(2-aminoethyl)-1H-indol-5-yloxy]-1,2,3,4-tetrahydronaphthalen-2-yl}piperidin-3-ylamine], the IC50 was 1000 to 10000 nM. `Cc1nn(C)c(C)c1-c1ccc(O[C@H]2c3cc(Cl)ccc3C[C@@H]2N2CC[C@@H](O)C2)cc1` [Example 140, (R)-1-{trans-(1S,2S)-6-chloro-1-[4-(1,3,5-trimethyl-1H-pyrazol-4-yl)phenoxy]indan-2-yl}pyrrolidin-3-ol] was tested, and the IC50 was 1000 to 10000 nM. Molecule `CC(=O)Nc1cccc(O[C@H]2c3cc(F)cc(Cl)c3C[C@@H]2N2CCNCC2)c1` (racemic) [Example 650, N-[3-(rac-trans-(1,2)-4-chloro-6-fluoro-2-piperazin-1-ylindan-1-yloxy)phenyl]acetamide] has an IC50 of less than 1000 nM. `NCC1CCN([C@@H]2Cc3ccccc3[C@H]2Oc2ccnc3ccccc23)CC1` (racemic) [Example 622, C-{1-[rac-trans-(1,2)-1-(quinolin-4-yloxy)indan-2-yl]piperidin-4-yl}methylamine] was tested, and the IC50 was 1000 to 10000 nM. For `CN1CCN(c2ccc(Cl)c(O[C@H]3c4cc(Cl)cc(F)c4C[C@@H]3N3CC[C@@H](O)C3)c2)C1=O` [Example 340, 1-{4-chloro-3-[(1S,2S)-6-chloro-4-fluoro-2-((R)-3-hydroxypyrrolidin-1-yl)indan-1-yloxy]phenyl}-3-methylimidazolidin-2-one], the IC50 was less than 1000 nM. Molecule `N[C@H]1CCCN([C@H]2CCc3ccccc3[C@@H]2Oc2ccc(-n3cncn3)cc2)C1` (racemic) [Example 171, (S)-1-[rac-trans-(1,2)-1-(4-[1,2,4]triazol-1-ylphenoxy)-1,2,3,4-tetrahydronaphthalen-2-yl]piperidin-3-ylamine] has an IC50 of 1000 to 10000 nM.
